Measurements: PubChem BioAssay AID1259408 (Genetic Toxicology Data Bank (GENE-TOX), 2018)
Active and inactive are the calls of the source. The rule behind the calls is not given here.

Tested on: GENE-TOX genotoxicity assays, various organisms and cells
Test: GENE-TOX mutagenicity studies
Settings: for call: Assay Type: In vivo carcinogenicity studies
[1] = Species/Cell Type: Drosophila melanogaster, Assay Type: Sex-linked recessive lethal gene mutation, Assay Code: SRL+, Evaluation Type: Evaluation A (Pre-1980)
[2] = Species/Cell Type: Salmonella typhimurium (one or more of the five standard strains: TA98, TA100, TA1535, TA1537, and TA1538), Assay Type: Histidine reverse gene mutation, Ames assay, Assay Code: SAL+*, Activation: With metabolic activation, Evaluation Type: Evaluation A (Pre-1980)
[3] = Species/Cell Type: Nonhuman, Assay Code: CCGT, Evaluation Type: Evaluation A (Pre-1980)
[4] = Species/Cell Type: Salmonella typhimurium (one or more of the five standard strains: TA98, TA100, TA1535, TA1537, and TA1538), Assay Type: Histidine reverse gene mutation, Ames assay, Assay Code: SAL-, Evaluation Type: Evaluation A (Pre-1980)
[5] = Species/Cell Type: Syrian hamster embryo (SHE) cells, Assay Type: Cell transformation, clonal assay, Assay Code: CTC-, Evaluation Type: Evaluation A (Pre-1980)
[6] = Species/Cell Type: Mammalian polychromatic erythrocytes, Assay Type: Micronucleus test, chromosome aberrations, Assay Code: MNTT, Evaluation Type: Evaluation A (Pre-1980)

## C/C=C1/C[C@@H](C)[C@@](C)(O)C(=O)OCC2=CCN3CC[C@@H](OC1=O)[C@@H]23
[1]
  mutagenic call: active; positive

## Cc1c2ccccc2cc2c3c(ccc12)C(O)C(O)C=C3 (stereo unspecified)
Species/Cell Type: Mouse prostate cells, Assay Type: Cell transformation, Assay Code: CTM+, Evaluation Type: Evaluation A (Pre-1980)
  mutagenic call: active; positive
Species/Cell Type: Nonhuman, Assay Type: Sister-chromatid exchange (SCE) in vitro, Assay Code: SC2+D, Dose Response: With dose response, Evaluation Type: Evaluation A (Pre-1980)
  mutagenic call: active; positive
[2]
  mutagenic call: active; positive

## CN1CCC(=C2c3ccccc3C=Cc3ccccc32)CC1
Species/Cell Type: Salmonella typhimurium (one or more of the five standard strains: TA98, TA100, TA1535, TA1537, and TA1538), Assay Type: Histidine reverse gene mutation, Ames assay, Assay Code: SALT, Evaluation Type: Evaluation A (Pre-1980)
  mutagenic call: no conclusion

## S=c1nc[nH]c2nc[nH]c12
Species/Cell Type: Escherichia coli polA (W3119 vs P3478), Assay Type: Rec-assay, DNA effects (bacterial DNA repair), Assay Code: RE1+, Evaluation Type: Evaluation A (Pre-1980)
  mutagenic call: active; positive
Species/Cell Type: Mammalian germ cells, Sex: Male, Assay Type: Chromosome aberrations in vivo, Assay Code: CY9+, Evaluation Type: Evaluation A (Pre-1980)
  mutagenic call: active; positive
Species/Cell Type: Mammalian polychromatic erythrocytes, Assay Type: Micronucleus test, chromosome aberrations, Assay Code: MNT+, Evaluation Type: Evaluation A (Pre-1980)
  mutagenic call: active; positive
Species/Cell Type: Mouse (C3H/10T1/2) cells, Assay Type: Cell transformation, Assay Code: CTH-, Evaluation Type: Evaluation A (Pre-1980)
  mutagenic call: inactive; negative
Species/Cell Type: Mouse, Sex: Male, Assay Type: Heritable translocation test, chromosome aberrations, Assay Code: HTT-, Evaluation Type: Evaluation A (Pre-1980)
  mutagenic call: inactive; negative
Species/Cell Type: Nonhuman bone marrow, Assay Type: Chromosome aberrations, in vivo, Assay Code: CY#+D, Dose Response: With dose response, Evaluation Type: Evaluation A (Pre-1980)
  mutagenic call: active; positive
[3]
  call: no conclusion
Species/Cell Type: Nonhuman, Assay Type: Sister-chromatid exchange (SCE) in vitro, Assay Code: SC2T, Evaluation Type: Evaluation B (Post-1980)
  mutagenic call: no conclusion
Species/Cell Type: Rodents, Sex: Male, Assay Type: Dominant lethal test, Assay Code: DLT+, Evaluation Type: Evaluation A (Pre-1980)
  mutagenic call: active; positive

## Nc1ccc(S(=O)(=O)Nc2nccs2)cc1
Species/Cell Type: Arabidopsis species, Assay Type: Gene mutation, Assay Code: ARM-, Evaluation Type: Evaluation A (Pre-1980)
  mutagenic call: inactive; negative

## C[n+]1c2ccccc2cc2ccccc21
Species/Cell Type: Saccharomyces cerevisiae, Assay Type: Forward gene mutation, Assay Code: YEFT, Evaluation Type: Evaluation A (Pre-1980)
  mutagenic call: no conclusion

## O=NN1CCC(O)CC1
Species/Cell Type: Drosophila melanogaster, Assay Type: Aneuploidy, partial sex chromosome loss, chromosome aberrations, Assay Code: DAPT, Evaluation Type: Evaluation A (Pre-1980)
  mutagenic call: no conclusion
Species/Cell Type: Drosophila melanogaster, Assay Type: Aneuploidy, whole sex chromosome loss, chromosome aberrations, Assay Code: DACT, Evaluation Type: Evaluation A (Pre-1980)
  mutagenic call: no conclusion
Species/Cell Type: Drosophila melanogaster, Assay Type: Sex-linked recessive lethal gene mutation, Assay Code: SRLT, Evaluation Type: Evaluation A (Pre-1980)
  mutagenic call: no conclusion
[2]
  mutagenic call: active; positive

## O=S(=O)(O)c1ccc(N=Nc2cc(S(=O)(=O)O)c3ccccc3c2O)c2ccccc12
Species/Cell Type: Bacillus subtilis (H17 vs M45), Assay Type: Rec-assay, spot test, DNA effects (bacterial DNA repair), Assay Code: REWT, Evaluation Type: Evaluation A (Pre-1980)
  mutagenic call: no conclusion
Species/Cell Type: Nonhuman, Assay Code: CCG-, Evaluation Type: Evaluation A (Pre-1980)
  call: inactive; negative
Species/Cell Type: Saccharomyces cerevisiae, Assay Type: Mitotic recombination or gene conversion, Assay Code: YEC-, Evaluation Type: Evaluation A (Pre-1980)
  mutagenic call: inactive; negative
[4]
  mutagenic call: inactive; negative

## O=c1cc(CO)occ1O
[2]
  mutagenic call: active; positive

## CC(C)CCC[C@@H](C)[C@H]1CC[C@H]2[C@@H]3CC=C4C[C@@H](O)CC[C@]4(C)[C@H]3CC[C@]12C
[5]
  mutagenic call: inactive; negative

## c1cc2ccc3cccc4ccc(c1)c2c34
Species/Cell Type: Chinese hamster lung (V79) cells, Assay Type: Forward gene mutation at the HPRT or ouabain locus, Assay Code: V79-*, Activation: With metabolic activation, Evaluation Type: Evaluation A (Pre-1980)
  mutagenic call: inactive; negative
Species/Cell Type: Chinese hamster lung (V79) cells, Assay Type: Forward gene mutation, host-mediated assay, Assay Code: HMG-, Evaluation Type: Evaluation A (Pre-1980)
  mutagenic call: inactive; negative
Species/Cell Type: Fischer rat embryo (RLV/1706) cells, Assay Type: Cell transformation, viral enhanced, Assay Code: CTR-, Evaluation Type: Evaluation A (Pre-1980)
  mutagenic call: inactive; negative
Species/Cell Type: Human diploid fibroblasts, Assay Type: Unscheduled DNA synthesis (UDS) in vitro, DNA effects, Assay Code: UDH-*, Activation: With metabolic activation, Evaluation Type: Evaluation A (Pre-1980)
  mutagenic call: inactive; negative
[6]
  mutagenic call: no conclusion
Species/Cell Type: Mouse (BALB/c-3T3) cells, Assay Type: Cell transformation, Assay Code: CTB-, Evaluation Type: Evaluation A (Pre-1980)
  mutagenic call: inactive; negative
Species/Cell Type: Mouse embryo (AKR/ME) cells, Assay Type: Cell transformation, Assay Code: CTK-, Evaluation Type: Evaluation A (Pre-1980)
  mutagenic call: inactive; negative
Species/Cell Type: Mouse, Sex: Male, Assay Type: Sperm morphology, Assay Code: SPI-, Evaluation Type: Evaluation A (Pre-1980)
  mutagenic call: inactive; negative
Species/Cell Type: Nonhuman, Assay Type: Chromosome aberrations in vitro, Assay Code: CY&-, Evaluation Type: Evaluation A (Pre-1980)
  mutagenic call: inactive; negative
[3]
  call: no conclusion
Species/Cell Type: Nonhuman, Assay Type: Sister-chromatid exchange (SCE) in vitro, Assay Code: SC2+, Evaluation Type: Evaluation B (Post-1980)
  mutagenic call: active; positive
Species/Cell Type: Nonhuman, Assay Type: Sister-chromatid exchange (SCE) in vitro, Assay Code: SC2T, Evaluation Type: Evaluation A (Pre-1980)
  mutagenic call: no conclusion
Species/Cell Type: Nonhuman, Assay Type: Sister-chromatid exchange (SCE) in vivo, Assay Code: SC3-, Evaluation Type: Evaluation A (Pre-1980)
  mutagenic call: inactive; negative
[4]
  mutagenic call: inactive; negative
[5]
  mutagenic call: inactive; negative
Species/Cell Type: Tradescantia species, Assay Type: Gene mutation, Assay Code: TRM+D, Dose Response: With dose response, Evaluation Type: Evaluation A (Pre-1980)
  mutagenic call: active; positive

## [Cl][Fe][Cl]
Species/Cell Type: Bacillus subtilis (H17 vs M45), Assay Type: Rec-assay, spot test, DNA effects (bacterial DNA repair), Assay Code: REW-, Evaluation Type: Evaluation A (Pre-1980)
  mutagenic call: inactive; negative
Species/Cell Type: Syrian hamster embryo (SA7/SHE) cells, Assay Type: Cell transformation, viral enhanced, Assay Code: CT7+, Evaluation Type: Evaluation A (Pre-1980)
  mutagenic call: active; positive

## c1ccc(C2CO2)cc1 (stereo unspecified)
Species/Cell Type: Chinese hamster lung (V79) cells, Assay Type: Forward gene mutation at the HPRT or ouabain locus, Assay Code: V79+, Evaluation Type: Evaluation A (Pre-1980)
  mutagenic call: active; positive
[1]
  mutagenic call: active; positive
Species/Cell Type: Escherichia coli WP2 UVRA, Assay Type: Tryptophan reverse gene mutation, Assay Code: WPU+D, Dose Response: With dose response, Evaluation Type: Evaluation A (Pre-1980)
  mutagenic call: active; positive
Species/Cell Type: Human diploid fibroblasts, Assay Type: Unscheduled DNA synthesis (UDS) in vitro, DNA effects, Assay Code: UDH+, Evaluation Type: Evaluation A (Pre-1980)
  mutagenic call: active; positive
Species/Cell Type: Human lymphocytes, Assay Type: Micronucleus test in vitro, chromosome aberrations, Assay Code: MN7+, Evaluation Type: Evaluation A (Pre-1980)
  mutagenic call: active; positive
Species/Cell Type: Human lymphocytes, Assay Type: Sister-chromatid exchange (SCE) in vitro, Assay Code: SCL+D, Dose Response: With dose response, Evaluation Type: Evaluation B (Post-1980)
  mutagenic call: active; positive
Species/Cell Type: Human, Assay Type: Sister-chromatid exchange (SCE) in vitro, Assay Code: SC1+D, Dose Response: With dose response, Evaluation Type: Evaluation B (Post-1980)
  mutagenic call: active; positive
[6]
  mutagenic call: no conclusion
Species/Cell Type: Nonhuman, Assay Code: CCG+L, Evaluation Type: Evaluation A (Pre-1980)
  call: active; positive
Species/Cell Type: Nonhuman, Assay Type: Sister-chromatid exchange (SCE) in vivo, Assay Code: SC3+, Evaluation Type: Evaluation B (Post-1980)
  mutagenic call: active; positive
Species/Cell Type: Plant, Assay Type: Micronucleus test, chromosome aberrations, Assay Code: MNP+, Evaluation Type: Evaluation A (Pre-1980)
  mutagenic call: active; positive
Species/Cell Type: Rodents, Sex: Male, Assay Type: Dominant lethal test, Assay Code: DLT-, Evaluation Type: Evaluation A (Pre-1980)
  mutagenic call: inactive; negative
Species/Cell Type: Saccharomyces cerevisiae, Assay Type: Forward and reverse gene mutation, mitotic recombination and gene conversion, host-mediated assay, Assay Code: HME+, Evaluation Type: Evaluation A (Pre-1980)
  mutagenic call: active; positive
Species/Cell Type: Saccharomyces cerevisiae, Assay Type: Mitotic recombination or gene conversion, Assay Code: YEC+*, Activation: With metabolic activation, Evaluation Type: Evaluation A (Pre-1980)
  mutagenic call: active; positive
Species/Cell Type: Salmonella typhimurium (one or more of the five standard strains: TA98, TA100, TA1535, TA1537, and TA1538), Assay Type: Histidine reverse gene mutation, Ames assay, Assay Code: SAL+, Evaluation Type: Evaluation A (Pre-1980)
  mutagenic call: active; positive
Species/Cell Type: Schizosaccharomyces pombe, Assay Type: Forward gene mutation, Assay Code: YEY+/-*, Activation: With metabolic activation, Evaluation Type: Evaluation A (Pre-1980)
  mutagenic call: inactive; positive without activation, negative with activation

## NC1C(O)[C@@H](O)C(CO)O[C@@H]1O (stereo partly specified)
Species/Cell Type: Escherichia coli WP2, Assay Type: Tryptophan reverse gene mutation, Assay Code: WP2-, Evaluation Type: Evaluation A (Pre-1980)
  mutagenic call: inactive; negative
